Converted amounts (≈) assume the structure as drawn.

The test system of one data set is Human HelaM cells. In words: Cytotoxicity MTT assay (TOX HELAM). The format is cell-based. The following applies: 72 hours. As to the method: Cytotoxicity of the compounds was evaluated using the MTT assay. Human HelaM cells grown in 96-well plates were exposed to serial dilutions of the tested compounds (final volume of 0.2 ml) and incubated for 72 hours at 37° C. and 5% CO2. Inhibitors are typically varied over the range of 25 to 0.8 μM. The final DMSO concentration in the assay is 0.5%. MTT (3-(4,5-Dimethylthiazol-2-yl)-2,5-diphenyltetrazolium bromide, a tetrazole) was added and reduced to purple formazan only in living cells. Solubilization of the formazan crystals was achieved by adding 100 μl 2-propanol. Cell viability was determined by measuring the absorbance of the reduced formazan, giving a purple color, at 540 nm and 690 nm. The absorbance measured at 690 nm was automatically subtracted from the absorbance at 540 nm, to eliminate the effects of non-specific absorption. The percent cytotoxicity achieved by the compounds was calculated according to standard methods. Cytotoxicity is reported as CC50, the concentration that causes a 50% reduction in cell viability.
The results are depicted in the table D2 below (TOX HELAM).

The test system of data set [1] is Staphylococcus aureus ATCC 29213. In words: Antibacterial susceptibility testing: IC90 determination (STA). Format: cell-based. The following applies: STA ATCC 29213, 90% inhibitory concentration for bacterial growth. As to the method: (§1) The following bacteria were used: Staphylococcus aureus ATCC 29213, methicillin-resistant Staphylococcus aureus (MRSA) ATCC 700788 and Escherichia coli ATCC 35218. The bacteria used in this study were grown overnight in flasks containing 100 ml Mueller-Hinton broth (Difco cat. nr. 0757-17) in sterile de-ionized water, with shaking, at 37° C. Stocks were store at −70° C. until use.
(§2) Bacteria were incubated on a tryptic soy agar plate containing 5% sheep blood (Becton Dickinson cat. nr. 254053) for 18-24 hours at 35° C. in aerobic conditions (first passage). For the second passage, fresh Mueller-Hinton broth is inoculated with 5-10 colonies and grown overnight at 35° C. until turbidity (reaching log-phase) in aerobic conditions is reached. The bacterial suspension is then adjusted to 0.5 McFarland density and further diluted 1:100 in Mueller Hinton broth medium. This is used as inoculum.
(§3) MIC assays were performed by the broth microdilution method in a 96-well format (flat-bottom microtitre plates) with a final volume of 0.1 ml Mueller Hinton broth containing two-fold serial dilutions of compounds and inoculated with 5×10^5 CFU/ml of bacteria (standard inoculum size according to CLSI guidelines). Inhibitors are typically varied over the range of 63 to 0.49 μM. The final DMSO concentration in the assay was 1.25% (maximum tolerable DMSO concentration=6%). In the assays where the effect of human serum on the activity of the compounds against S. aureus was tested, human serum was added at a final concentration of 10%. The plates were incubated at 35° C. for 16-20 hours. At the end of incubation the bacterial growth was quantified fluorometrically. For this, resazurin was added to all wells and the plates were re-incubated. The incubation time is dependent on the type of bacteria. A change in color from blue to pink indicated the growth of bacteria. The fluorescence was read in computer-controlled fluorometer (Fluoroskan Ascent FL, Labsystems) at an excitation wavelength 540 nm and an emission wavelength of 590 nm. The % growth inhibition achieved by the compounds was calculated according to standard methods. The IC90 (expressed in μg/ml) was defined as the 90% inhibitory concentration for bacterial growth. A panel of reference compounds were simultaneously tested for QC approval.

In the next data set the test system is S. aureus. The data set is described as follows: Antibacterial susceptibility testing: IC90 determination with 10% human serum (STA + 10% HS). The format is cell-based, Staphylococcus aureus. The following applies: human serum at a final concentration of 10%. As to the method:
as §1, §2, §3
The results are depicted in the table D2 below (STA+10% HS).

Data set [2] addresses S. aureus ATCC 29213 FabI (Staphylococcus aureus (strain MRSA252), UniProt Q6GI75). The data set is described as follows: Staphylococcus aureus FabI enzyme inhibition assay. Format: biochemical. The following applies: pH 6.5, 30 minutes at room temperature. As to the method: FabI enzyme inhibition assays were carried out in half-area, 384-well microtitre plates. Compounds were evaluated in 40-μl assay mixtures containing 100 mM NaADA, pH 6.5 (ADA=N-[2-acetamido]-2iminodiacetic acid), 250 μM crotonoyl-CoA, 625 μM NADH and 50 μg/ml S. aureus ATCC 29213 FabI. Inhibitors were typically varied over the range of 50 to 0.39 μM. The reaction mixtures were incubated for 30 minutes at room temperature and the reaction was stopped by adding 200 mM Tris buffer (pH 9.0) to create a pH-shift. The consumption of NADH was monitored by measuring the change in absorbance at […]. By comparing sample readings to those of negative (absence of compound) and positive (absence of enzyme) controls, the percent inhibition of enzymatic activity of the compounds was determined. A best-fit curve is fitted by a minimum of squares method. From this an IC50-value (expressed in μg/ml), resulting in 50% inhibition of enzymatic activity, was obtained.

In data set [3] the test system is Staphylococcus aureus ATCC 43300; reference strain MRSA. In words: Antimicrobial spectrum, broth microdilution MIC. The format is cell-based. Conditions: S. aureus ATCC 43300. As to the method: (§4) Minimum Inhibitory Concentrations (MICs) were determined in accordance with the Clinical and Laboratory Standards Institute (CLSI) methodology against aerobic bacteria (CLSI M07-A8) (see Clinical and Laboratory Standards Institute. 2009. Methods for dilution antimicrobial susceptibility tests for bacteria that grow aerobically. CLSI document M07-A8, Vol. 29, No. 2.) by the broth microdilution method with cation-adjusted Mueller-Hinton broth (CA-MHB) medium for the majority of organisms, except for Haemophilus influenza, where Haemophilis test medium (HTM) broth was used. Descriptions of the individual organisms can be found in the table. Where possible, ATCC standard strains were tested.
(§5) The inoculum density for the susceptibility testing was standardized to give a final inoculum of approximately 5×10^5 CFU/mL.
(§6) Stock solutions of the compounds were prepared in DMSO at concentrations of 1 mg/mL. Linezolid was prepared in DMSO at a concentration of 2 mg/mL. Stock solutions of all compounds were diluted into CA-MHB to give a range of two-fold dilutions, depending upon the sensitivity of the organism being tested.

The subject of data set [4] is Haemophilus influenzae ATCC 49247; reference strain. In words: Antimicrobial spectrum, broth microdilution MIC. Format: cell-based. The following applies: H. influenza ATCC 49247. As to the method:
as §4, §5, §6

Data set [5] deals with Escherichia coli ATCC 25922; reference strain. The data set is described as follows: Antimicrobial spectrum, broth microdilution MIC. The format is cell-based. The following applies: E. coli ATCC 25922. As to the method: as §4, §5, §6
Data set [6] concerns Staphylococcus aureus ATCC 29213; reference strain MSSA. In words: Antimicrobial spectrum, broth microdilution MIC. The format is cell-based. Conditions: S. aureus ATCC 29213. As to the method: as §4, §5, §6
For data set [7], the system named is Escherichia coli Tol C mutant. The data set is described as follows: Antimicrobial spectrum, broth microdilution MIC. The format is cell-based. The following applies: E. coli tolC mutant. As to the method:
as §4, §5, §6

A short description of data set [8]: In vivo pharmacokinetic and oral bioavailability. The following applies: male Swiss mice; for C0: 20% HP-β-CD solution; for Oral bioavailability: p.o. 10 mg/kg vs i.v. 2.5 mg/kg. As to the method: The in vivo pharmacokinetics and oral bioavailability of the compound of the examples was/is investigated in male Swiss mice (fed) following single intravenous (i.v.) bolus and oral (p.o.) administration. For the i.v. and p.o. solution formulations, the compound was/is dissolved in a 20% HP-β-CD solution. The pH of the formulations was/is around pH 4. All i.v. formulations were isotonic.

In the case of `O=C1CCc2cc(/C=C/C(=O)N3C[C@@H]4CN(c5ccccc5)C[C@@H]4C3)cnc2N1` [compound 2], the “TOX HELAM (222.125) CC50” value in the data set on Human HelaM cells is more than 19.4696 µg/mL. Further, the “STA (361.159) IC90” value in data set [1] was 1.02 µg/mL. Also, the “STA + 10% HS (361.169) IC90” value with S. aureus turned out to be 1.09 µg/mL. Further, in [2], the “FabI IC50” value was 0.78 µg/mL. Also, the MIC90 in data set [3] was 0.5 µg/mL (≈ 1.29 µM); in data set [4] it was more than 8 µg/mL; in data set [5] it was more than 8 µg/mL; in data set [6], 0.25 µg/mL (≈ 0.644 µM); in data set [7], 0.25 µg/mL (≈ 0.644 µM).

Turning to `O=C1CCc2cc(/C=C/C(=O)N3CC4C=C(c5ccsc5)CC4C3)cnc2N1` (stereo not shown) [compound 10], the “TOX HELAM (222.125) CC50” value in the data set with Human HelaM cells was more than 3.915 µg/mL. Also, the “STA (361.159) IC90” value in [1] was 0.08 µg/mL. Also, the “STA + 10% HS (361.169) IC90” value with S. aureus was 0.13 µg/mL. In [8] (i.v. 2.5 mg/kg), the AUC0-inf stood at 3992 ng·h/mL, the “Half life (t1/2)” value is given as 1.3 h, the “Plasma clearance Cl” value is 10.7 mL/min/kg and the Vdz was determined as 1.2 L/kg. In data set [8] (i.v. 2.5 mg/kg), this molecule had a C0 of 4154 ng/mL. For the same molecule, the Oral bioavailability in data set [8] is 81%. In [8] (p.o. 10 mg/kg), the AUC0-inf was 12376 ng·h/mL, the Cmax amounted to 3537 ng/mL, the “Half life (t1/2)” value stood at 2.2 h and the Tmax was 1.0 h. In [2], the “FabI IC50” value turned out to be 0.53 µg/mL. Further, the MIC90 in data set [3] amounted to 0.03 µg/mL (≈ 0.0766 µM). The molecule also yielded an MIC90 in [4] of more than 8 µg/mL. Also, the MIC90 in data set [5] is more than 8 µg/mL. This molecule also came in with an MIC90 in data set [6] of 0.015 µg/mL (≈ 0.0383 µM). For the same molecule, in [7], the MIC90 was found to be 0.125 µg/mL (≈ 0.319 µM).

With `O=C1CCc2cc(/C=C/C(=O)N3CC4C=C(c5ccncc5)CC4C3)cnc2N1` (stereo not shown) [compound 12], the “TOX HELAM (222.125) CC50” value in the data set with Human HelaM cells was more than 9.707 µg/mL. The “STA (361.159) IC90” value in data set [1] was 0.33 µg/mL. Besides, the “STA + 10% HS (361.169) IC90” value in the data set on S. aureus amounted to 0.53 µg/mL. Further, in data set [8] (i.v. 2.5 mg/kg), the AUC0-inf was determined as 1124 ng·h/mL, the “Half life (t1/2)” value was 1.1 h, the “Plasma clearance Cl” value came out at 36.7 mL/min/kg and the Vdz is on record as 3.7 L/kg. In data set [8] (i.v. 2.5 mg/kg), the C0 turned out to be 2333 ng/mL. This molecule also gave an Oral bioavailability in data set [8] of 21%. Moreover, in data set [8] (p.o. 10 mg/kg), the AUC0-last is 914 ng·h/mL, the Cmax amounted to 275 ng/mL and the Tmax is recorded as 1.0 h. For the same molecule, the “FabI IC50” value in [2] was 0.44 µg/mL. In [3], this molecule yielded an MIC90 of 0.125 µg/mL (≈ 0.323 µM). Besides, the MIC90 in data set [4] is 1 µg/mL (≈ 2.59 µM). In addition, the MIC90 in [5] is more than 8 µg/mL. Also, the MIC90 in [6] was found to be 0.125 µg/mL (≈ 0.323 µM). The molecule also returned an MIC90 in [7] of 0.25 µg/mL (≈ 0.647 µM).

For `O=C1CCc2cc(/C=C/C(=O)N3CC4C=C(c5ccccc5F)CC4C3)cnc2N1` (stereo not shown) [compound 21], the “TOX HELAM (222.125) CC50” value in the data set with Human HelaM cells is more than 4.0346 µg/mL. Besides, the “STA (361.159) IC90” value in data set [1] came out at 0.13 µg/mL. The “STA + 10% HS (361.169) IC90” value in the data set with S. aureus was 0.29 µg/mL. In data set [2], the “FabI IC50” value turned out to be 0.65 µg/mL.

For `O=C1CCc2cc(/C=C/C(=O)N3CC4C=C(c5ccoc5)CC4C3)cnc2N1` (stereo not shown) [compound 22], the “TOX HELAM (222.125) CC50” value in the data set with Human HelaM cells was more than 9.43 µg/mL. Besides, the “STA (361.159) IC90” value in [1] came out at 0.23 µg/mL. Moreover, the “STA + 10% HS (361.169) IC90” value in the data set with S. aureus was 0.25 µg/mL. Also, in data set [2], the “FabI IC50” value turned out to be 0.58 µg/mL. The MIC90 in [3] is 0.125 µg/mL (≈ 0.333 µM); in data set [4], 4 µg/mL (≈ 10.7 µM); in [5], more than 8 µg/mL; in [6] it was 0.06 µg/mL (≈ 0.16 µM); in [7], 1 µg/mL (≈ 2.66 µM).

In the case of `N#Cc1ccccc1C1=CC2CN(C(=O)/C=C/c3cnc4c(c3)CCC(=O)N4)CC2C1` (stereo not shown) [compound 23], the “TOX HELAM (222.125) CC50” value with Human HelaM cells is more than 10.3108 µg/mL. Besides, the “STA (361.159) IC90” value in data set [1] stood at 0.67 µg/mL. Besides, in the data set with S. aureus, the “STA + 10% HS (361.169) IC90” value was found to be 0.79 µg/mL. In data set [2], the “FabI IC50” value was 0.41 µg/mL.

On to `O=C1CCc2cc(/C=C/C(=O)N3C[C@@H]4CN(c5nccs5)C[C@@H]4C3)cnc2N1` [compound 24], for which the “TOX HELAM (222.125) CC50” value in the data set on Human HelaM cells is more than 3.9549 µg/mL. Also, the “STA (361.159) IC90” value in data set [1] was found to be 4.05 µg/mL. Besides, the “STA + 10% HS (361.169) IC90” value in the data set with S. aureus came to 2.44 µg/mL. For the same molecule, the “FabI IC50” value in [2] amounted to 0.58 µg/mL.

Source of the values: patent publication US9617262B2, “Antibacterial cyclopental[C]pyrrole substituted 3,4-dihydro-1H-[1,8]naphthyridinones” (Janssen Sciences Ireland UC, priority 2011, dated 2017).
